Source: the NIST ThermoML archive (doi:10.1021/je5010214)

Settings: Liquid, Vibrating tube method

CCCCO [butan-1-ol]
Settings | mass density [kg/m3]
283.15 K, 267.6 kPa | 817.937
283.15 K, 550.8 kPa | 818.14
283.15 K, 878.6 kPa | 818.388
283.15 K, 991.3 kPa | 818.415
283.15 K, 2020.2 kPa | 819.134
283.15 K, 2914.8 kPa | 819.722
283.15 K, 4946.5 kPa | 821.145
283.15 K, 7034.8 kPa | 822.538
283.15 K, 9021.6 kPa | 823.807
283.15 K, 9991.9 kPa | 824.485
283.15 K, 11959 kPa | 825.705
283.15 K, 15011 kPa | 827.609
283.15 K, 18047 kPa | 829.455
283.15 K, 20045 kPa | 830.642
283.15 K, 22057 kPa | 831.928
283.15 K, 25044 kPa | 833.615
283.15 K, 28046 kPa | 835.368
283.15 K, 30052 kPa | 836.501
283.15 K, 32970 kPa | 838.092
283.15 K, 32971 kPa | 838.117
283.15 K, 34017 kPa | 838.557
283.15 K, 34960 kPa | 839.141
283.15 K, 37943 kPa | 840.737
283.15 K, 40004 kPa | 841.811
283.15 K, 42058 kPa | 842.896
283.15 K, 44940 kPa | 844.325
283.15 K, 48022 kPa | 845.954
283.15 K, 49996 kPa | 846.902
283.15 K, 51982 kPa | 847.942
283.15 K, 54965 kPa | 849.358
283.15 K, 57949 kPa | 850.826
283.15 K, 59996 kPa | 851.847
283.15 K, 62025 kPa | 852.74
283.15 K, 64998 kPa | 854.215
283.16 K, 101.2 kPa | 817.825
283.16 K, 65971 kPa | 854.69
288.15 K, 78.5 kPa | 813.612
288.15 K, 391.3 kPa | 813.84
288.15 K, 554.4 kPa | 813.953
288.15 K, 882.7 kPa | 814.204
288.15 K, 989.1 kPa | 814.282
288.15 K, 2057.5 kPa | 815.033
288.15 K, 2917.8 kPa | 815.651
288.15 K, 5041.4 kPa | 817.16
288.15 K, 7088.8 kPa | 818.541
288.15 K, 9018.6 kPa | 819.847
288.15 K, 10040 kPa | 820.583
288.15 K, 12072 kPa | 821.91
288.15 K, 15001 kPa | 823.877
288.15 K, 17968 kPa | 825.72
288.15 K, 20068 kPa | 826.976
288.15 K, 20693 kPa | 827.38
288.15 K, 22020 kPa | 828.211
288.15 K, 25002 kPa | 829.984
288.15 K, 28026 kPa | 831.832
288.15 K, 30035 kPa | 832.896
288.15 K, 32084 kPa | 834.074
288.15 K, 33050 kPa | 834.714
288.15 K, 34036 kPa | 835.152
288.15 K, 35077 kPa | 835.674
288.15 K, 37993 kPa | 837.311
288.15 K, 40041 kPa | 838.449
288.15 K, 42023 kPa | 839.459
288.15 K, 44979 kPa | 841.064
288.15 K, 48045 kPa | 842.655
288.15 K, 50068 kPa | 843.734
288.15 K, 52032 kPa | 844.696
288.15 K, 55077 kPa | 846.251
288.15 K, 58004 kPa | 847.666
288.15 K, 59988 kPa | 848.618
288.15 K, 61974 kPa | 849.542
288.15 K, 64942 kPa | 850.93
288.15 K, 66025 kPa | 851.488
293.15 K, 91.1 kPa | 810.528
293.15 K, 825.1 kPa | 811.053
293.15 K, 1971.7 kPa | 811.916
293.15 K, 3060.6 kPa | 812.72
293.15 K, 5011 kPa | 814.074
